Measured values: PubChem BioAssay AID743059 (The Scripps Research Institute Molecular Screening Center, 2013)
Calls of active or inactive are those of the source.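 Rule for the calls: active = EC50 at or below 10 µM; inactive = EC50 above 10 µM.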

Molecular target: Nuclear hormone receptor DAF-12 (Heterodera glycines)
Assay: H. glycines DAF-12 receptor agonist potency, dose response, cell-based, luminescence, HEK293 (AID 743059);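 note: agonist potency for compounds that raise hgDAF-12 reporter luminescence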
Settings: HEK293 hgDAF-12 reporter, luciferase luminescence

SMILES	EC50
CSc1ccc(/C=N/Nc2ccc(Cl)c(C(=O)O)c2)cc1	> 67.5 µM (inactive)
S=C(c1ccc(-c2ccc(Cl)cc2)o1)N1CCCCC1	> 67.5 µM (inactive)
Cc1nn(-c2nnc(NC3CCCCC3)nn2)c(C)c1Br	> 67.6 µM (inactive)
Cc1cc(-c2nc3cccnc3s2)ccc1NS(=O)(=O)c1cccs1	> 67.5 µM (inactive)
Cn1c(NCc2c[nH]c3ccccc23)nc2ccccc21	> 67.5 µM (inactive)
Cc1cc2nn(-c3ccc(F)cc3)nc2cc1N	> 67.5 µM (inactive)
Cc1nn(C(=O)c2cccs2)c(N)c1-c1ccccc1	> 67.5 µM (inactive)
Cc1ccc(-n2ncc3ccccc3c2=O)cc1Cl	> 67.6 µM (inactive)
Cc1ccc(/C=N/N=C/c2ccc(C)s2)s1	> 67.5 µM (inactive)
Cc1ccnc(NC(=O)C2CCN(S(=O)(=O)c3c(C)c(C)cc(C)c3C)CC2)c1	> 67.6 µM (inactive)
CC(=Nc1ccc(Cl)cc1N)c1c(O)cc(C)oc1=O	> 67.6 µM (inactive)
CCOc1ccc2nc(NC(=O)Nc3cccs3)sc2c1	> 67.5 µM (inactive)
Cc1ccc(/C=N/NC(=O)c2ccoc2C)s1	> 67.6 µM (inactive)
CCOC(=O)c1c(C)[nH]c(N=Nc2cccc(OC)c2)c1C	> 67.5 µM (inactive)
Cc1cc(NC(=O)c2nn3cccnc3c2Cl)no1	> 67.5 µM (inactive)
CCc1ccc2oc(-c3cccc(N)c3)nc2c1	> 67.6 µM (inactive)
COc1ccccc1-c1noc(-c2cccs2)n1	> 67.5 µM (inactive)
CCN(CC)S(=O)(=O)c1ccc(C(=O)OCC(=O)Nc2ccc(-c3nc4ccc(C)cc4s3)cc2)cc1	> 67.5 µM (inactive)
CCn1c(O)c(C=Nc2ccccc2)sc1=S	> 67.5 µM (inactive)
Cc1cccc(/C(N)=N/OC(=O)c2ccco2)c1	> 67.6 µM (inactive)
CCc1cc(C(=O)Nc2ncccc2O)sc1C	> 67.5 µM (inactive)
COc1ccc2oc3cc(NCCN(C)C)ccc3c(=O)c2c1	inactive
O=C(Nc1ccc(Cl)cn1)c1cc2ccccc2o1	> 67.5 µM (inactive)

SMILES	EC50
Cn1c(SCc2ccccc2F)nc2cccnc21	> 67.5 µM (inactive)
CC/C(=N\NC(=O)c1ccoc1C)c1ccc(C)o1	> 67.5 µM (inactive)
Clc1ccccc1Nc1nc2ccccc2o1	> 67.6 µM (inactive)
Cc1ccc2nc(-c3ccccn3)oc2c1	> 67.6 µM (inactive)
CCOC(=O)c1cn[nH]c1NC(=S)Nc1ccccc1	> 67.6 µM (inactive)
C(=N\NC1=Nc2cccc3cccc1c23)/c1ccccc1	> 67.5 µM (inactive)
OC(c1ccccc1)c1nc(-c2cnc3ccccc3c2)cs1 (stereo unspecified)	> 67.6 µM (inactive)
CCOC(=O)c1c(C)oc2c1cc(O)c1ccccc12	> 67.5 µM (inactive)
CCCn1c(=NC(=O)c2ccco2)c(C(=O)OCC)cc2c(=O)n3ccccc3nc21	> 67.5 µM (inactive)
Cc1ccc(-c2onc3ccc(C(=O)O)cc23)cc1	> 67.6 µM (inactive)
Cc1cc(-c2ccncc2)n2ncc(-c3ccccc3)c2n1	> 67.6 µM (inactive)
Clc1ccc(Nc2ccc3ccccc3n2)cc1	> 67.5 µM (inactive)
CN(C)c1ccc(N=Nc2nccs2)cc1	> 67.4 µM (inactive)
Cc1nc2sc(-c3ccccc3)nn2c(=O)c1Br	> 67.5 µM (inactive)
CCc1ccc(C2CC(c3ccco3)=NN2S(C)(=O)=O)cc1 (stereo unspecified)	> 67.5 µM (inactive)
Cc1ccc(-c2nc(-c3ccncc3)no2)cc1C	> 67.5 µM (inactive)
Cc1ccnc(NC(=O)/C=C/c2cccs2)c1	> 67.6 µM (inactive)
c1ccc(N=Nc2ccc(C3=NCCO3)cc2)cc1	> 67.6 µM (inactive)
CCCSc1nsc(NC(=O)CC)n1	> 67.5 µM (inactive)
Cc1ccc(-c2nc(Nc3ccccc3)n[nH]2)cc1	> 67.5 µM (inactive)
Cc1ccc(-c2cn3cccnc3n2)cc1	> 67.6 µM (inactive)
OCCN1CCN(c2cnc(-c3ccsc3)cn2)CC1	> 67.5 µM (inactive)
Cc1ccnc(NC(=O)CCNS(=O)(=O)c2ccc(C)c(C)c2)c1	> 67.6 µM (inactive)

SMILES	EC50
CCNC(=S)NNC(=O)c1cc(-c2ccc(OCC)cc2)nc2ccccc12	> 67.5 µM (inactive)
Cc1ccc(N/N=C(\C#N)C(=N)N2CCCCCC2)cc1	> 67.5 µM (inactive)
Cn1c(NC(=O)CCC2CCCCC2)cc(=O)n(C)c1=O	> 67.5 µM (inactive)
Cc1cc(C(=O)CSc2ncccn2)c(C)n1Cc1ccco1	> 67.5 µM (inactive)
Cc1ccc(S(=O)(=O)/N=C(/NC(=S)Nc2ccccc2)c2ccccc2)cc1	> 67.5 µM (inactive)
C/C(=N/NC(=O)c1cc(C(C)C)[nH]n1)c1cccs1	> 67.6 µM (inactive)
CCCCCc1nnc(NC(=O)C2=COCCO2)s1	> 67.6 µM (inactive)
CCOC(=O)c1sc2nc3c(cc2c1N)COC(C)(CC)C3 (stereo unspecified)	> 67.5 µM (inactive)
O=C(NCCc1ccccc1)c1cc(-c2ccco2)on1	7.6 µM
Cc1c(C(=O)Nc2ccccc2)csc1-c1ccccc1	> 67.5 µM (inactive)
Cn1c(O)c(N=NC(=O)c2ccco2)c2ccccc21	> 67.5 µM (inactive)
OCc1ccc(N=Nc2ccccc2)cc1	> 67.5 µM (inactive)
Cc1cccc(Nc2n[nH]c(C)c2[N+](=O)[O-])c1	> 67.5 µM (inactive)
Cc1nc(N)sc1N=Nc1ccc(Br)cc1	> 67.5 µM (inactive)
Nc1ccc(C(=O)Nc2ccccc2N)cc1	4.24 µM
Cc1cc2ncc(-c3ccccc3)nc2cc1C	> 67.5 µM (inactive)
Cc1ccc(SCCSc2ncccn2)cc1	> 67.5 µM (inactive)
Cc1cccc(N=Nc2cnc(N)s2)c1	> 67.6 µM (inactive)
COc1ccccc1/C=N\N=C(\N)c1ccccn1	> 67.6 µM (inactive)
CN1C(=O)/C(=C/C=C2\SCCN2C)N(C)C1=S	> 67.6 µM (inactive)
c1cncc(-c2noc(-c3ccc4ccccc4c3)n2)c1	> 67.5 µM (inactive)
Cc1cc(O)ccc1Nc1cc(-c2cccc(N(C)C)c2)ncn1	> 67.5 µM (inactive)
Nc1c(OS(=O)(=O)c2ccccc2)cccc1OS(=O)(=O)c1ccccc1	> 67.5 µM (inactive)

SMILES	EC50
CCc1sc(C(=O)Nc2ncccc2O)cc1C	inactive
CC(=Nc1cccc(C)c1)c1sc2ccccc2c1O	> 67.6 µM (inactive)
Cc1ccc(/C(N)=N/OC(=O)c2ccco2)cc1	> 67.5 µM (inactive)
Oc1ccccc1-c1cc(-c2ccc(Cl)cc2)n[nH]1	> 67.5 µM (inactive)
COc1cccc(/C=C/c2ccc3cccc(O)c3n2)c1	> 67.5 µM (inactive)
FC(F)(F)c1cc(Cl)c2nc(-c3ccccc3)cn2c1	> 67.5 µM (inactive)
COCCNC(=O)/C(C#N)=C/c1cc(C)n(C2CCCCC2)c1C	> 67.5 µM (inactive)
CS(=O)(=O)c1ccc2nc(NC(=O)Nc3ccccc3F)sc2c1	> 67.5 µM (inactive)
c1ccc([C@H]2CN3C(=N2)Sc2ccccc23)cc1	> 67.1 µM (inactive)
c1ccc(CSc2ccc(-c3ccccn3)nn2)nc1	> 67.5 µM (inactive)
CC1=CN2C(=N)/C(=C/c3ccco3)C(=O)N=C2S1	> 67.5 µM (inactive)
O=c1c2cc(-c3ccccc3)sc2nc2n1CCC2	> 67.5 µM (inactive)
Nc1ncc(Br)cc1N=Cc1ccccc1	> 67.5 µM (inactive)
Cc1cc(C)n2c(NC3CCCC3)c(-c3cc4ccccc4o3)nc2n1	> 67.5 µM (inactive)
CN(C)/C=N/C(=S)Nc1ccc(Cl)cc1	> 67.5 µM (inactive)
COc1cccc(-c2nc(-c3ccc(Br)o3)no2)c1	> 67.5 µM (inactive)
CCN(CC)S(=O)(=O)c1cc(C(=O)OCC(=O)Nc2ccc(-c3nc4ccc(C)cc4s3)cc2)ccc1F	> 67.5 µM (inactive)
C/C(=N\NC(=O)OC(C)(C)C)c1ccc[nH]1	> 67.6 µM (inactive)
Cc1ccc(-c2nnc(NC3CCCC3)s2)cc1	> 67.6 µM (inactive)
O=C1/C(=C\c2cccs2)Sc2ccc3ccccc3c21	> 67.5 µM (inactive)
O=C(CC(=O)c1cccs1)c1ccncc1	> 67.5 µM (inactive)
Cc1ccc(NC(=S)N/C(=N/S(=O)(=O)c2ccccc2)c2ccccc2)cc1	> 67.5 µM (inactive)
Oc1ccccc1-c1cc(-c2ccc3c(c2)OCCO3)n[nH]1	> 67.6 µM (inactive)

SMILES	EC50
COCCNc1nc(-c2cc3ccccc3o2)cs1	> 67.5 µM (inactive)
Cc1ccc(N=Nc2ccc(O)cc2)c(Br)c1	> 67.5 µM (inactive)
O=C(NCC1CCCO1)c1cc(-c2ccccc2F)no1 (stereo unspecified)	inactive
Cc1nnc(SCC(=O)Nc2nsc(-c3ccc(C(C)(C)C)cc3)n2)s1	> 67.5 µM (inactive)
c1csc(-c2nnc(-c3ccc(N4CCOCC4)cc3)o2)c1	> 67.5 µM (inactive)
COCC1CCN(Cc2nc(-c3cccs3)no2)C1 (stereo unspecified)	> 67.5 µM (inactive)
C=CCN1C(=O)[C@@H](CC(=O)N2CCSCC2)[C@]2(C(=O)OC)CCCCC=C12	> 67.5 µM (inactive)
N#C/C(=N\Nc1ccc(Cl)cc1)C(=N)N1CCCCCC1	> 67.5 µM (inactive)
COc1ccc(/C=C2\SC(=O)N(CCNC(=O)C3CC4C=CC3C4)C2=O)cc1 (stereo unspecified)	> 67.5 µM (inactive)
O=C(Nc1ccn(Cc2ccccc2)n1)c1n[nH]c([N+](=O)[O-])c1Cl	> 67.5 µM (inactive)
CC1CCC(NC(=O)c2cccn2C)CC1 (stereo unspecified)	> 67.6 µM (inactive)
CCS(=O)(=O)Nc1cc(-c2nc3cccnc3s2)ccc1C	> 67.5 µM (inactive)
Cc1ccc(NC(=S)NC(=O)C2CCCC2)c(Br)c1	> 67.5 µM (inactive)
COc1cccc(-c2noc(-c3cccs3)n2)c1	> 67.6 µM (inactive)
C/C(=N/OCc1ccc(Br)cc1)c1ccccn1	> 67.6 µM (inactive)
O=C(CCCc1ccccc1)NC12CC3CC(CC(C3)C1)C2	> 67.5 µM (inactive)
Oc1[nH]c2ccccc2c1C=Nc1ccccc1	> 67.5 µM (inactive)
Nc1nc(Nc2ccc(Cl)cc2)nc2ccccc12	> 67.5 µM (inactive)
Cc1ccc2nc(C)/c(=N\O)c(C)nc2c1	> 67.6 µM (inactive)
